Data taken from PubChem BioAssay (NCI).
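Protocol summary: plate cells (96-well), add compound at 5 concentrations, incubate 48 h, interpolate endpoints linearly. At the GI50, growth is halved. TGI is the concentration that stops growth completely.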

How the values were obtained:
Experiment in all cases: inhibition of tumour cell growth, NCI panel, 48 h
[1] = test system: OVCAR-8 ovarian
[2] = test system: U251 CNS
[3] = test system: A498 renal
[4] = test system: COLO 205 colon
[5] = test system: KM12 colon
[6] = test system: K-562 leukemia
[7] = test system: EKVX NSCLC
[8] = test system: SK-MEL-5 melanoma
[9] = test system: SNB-75 CNS
[10] = test system: BT-549 breast

SMILES	TGI [1] [µM]	TGI [2] [µM]	TGI [3] [µM]	TGI [4] [µM]	TGI [5] [µM]	TGI [6] [µM]	TGI [7] [µM]	TGI [8] [µM]	TGI [9] [µM]	GI50 [1] [µM]	GI50 [2] [µM]	GI50 [3] [µM]	GI50 [4] [µM]	GI50 [5] [µM]	GI50 [7] [µM]	GI50 [10] [µM]	TGI [10] [µM]	GI50 [8] [µM]	GI50 [9] [µM]
Cc1ccc(F)cc1NC(=O)O/N=C(\Cl)C(C)C	35.9	> 56.4	40.9	3.74	34.8	5.72	15.5	24.1	35.7										
Cc1ccc(C(=O)OC[C@H]2CC[C@@H](n3cc(N(C)C4CCCCC4)c(=O)[nH]c3=O)O2)cc1	> 100	38.7	46.8	39.5	40.9	> 100	> 100	40.1											
O=C(c1ccc(Cl)cc1)c1ccc(OCC(=O)N2CCN(c3ccccc3)CC2)cc1	> 100	> 100	78.9	> 100	> 100	> 100	> 100	> 100	> 100										
O=C(CSc1nc2ccccc2[nH]1)Nc1ccc(-c2nc3ccccc3s2)c(Cl)c1	> 100	4.33	52.7	51.4	8.1		> 100	> 100	> 100	3.35	1.85	2.22	4.16	2.67	6.82	7.69	> 100	3.12	6.58
CC1=NOC2(C1)/C(=N/O)CCC/C2=N\O (centres undefined)	> 100	> 100		> 100	> 100	> 100	> 100	> 100	> 100								> 100		
O=C(Nc1ccccc1)O/N=C(/CBr)c1ccccc1	44.1	30.5	64.1	32.9	44.2	> 100	35.1	28.1	30.5										
CCC1C(=O)C[C@H]2[C@@H]3C(O)CC4=CC(=O)CC[C@]4(C)[C@H]3CC[C@]12C (some centres undefined)	> 50	> 50	> 50	> 50	> 50	> 50	> 50	> 50	> 50										
CCCCOC(=O)CNC(=O)OCCCCC#CC#CCCCCOC(=O)NCC(=O)OCCCC	> 100	> 100	> 100	> 100	> 100	> 100	> 100	> 100	> 100										
CC(C)(C)OC(=O)n1cc(C2CNC(=O)C23CCC(=O)N3Cc2ccccc2)c2ccccc21 (centres undefined)		37.3	35.3	33.4	78.3	> 100	54.6	31.9	38.2										
O=[N+]([O-])c1cccc(-c2csc(N=Nc3c(O)[nH]c4ccccc34)n2)c1	30	40.4	80.1	> 100	> 100		61.8	49.9	56.1								> 100		
COC1=CC(=O)c2ccccc2C1(CCC=C(C)C)C1=NC(C)(C)CO1 (centres undefined)	> 100	> 100		> 100	> 100	> 100	> 100	> 100	> 100										
COc1cccc2cc(C)c(C(=O)c3ccccc3)nc12	> 100	> 100		> 100	> 100	> 100	> 100	> 100	> 100										
Cc1ccc(S(=O)(=O)N/C(=C\C=C\c2ccccc2)C(=O)C(C)(C)C)cc1	> 100	> 100	> 100	> 100	> 100	> 100	> 100	> 100	> 100										
Cn1ccnc1Sc1ccc(/C=N/NC(=O)c2ccccc2O)cc1[N+](=O)[O-]	> 100	> 100	> 100	56.8	> 100		> 100	> 100	> 100								> 100		
CCCCCc1cc(OC(=O)c2c(O)cc(OC)cc2CCCCC)cc(O)c1C(=O)O	36.3	29.1	35.6	34.5	34	> 100	39.9	28.5	32.5										
CC(C)CCCC(C)[C@H]1CCC2[C@@H]3CCC4Cc5nc6c(nc5C[C@]4(C)C3CC[C@@]21C)CC1CC[C@@H]2C(C[C@@H](O)[C@@]3(C)C2C[C@@H]2OC4(CCC(C)CO4)C(C)[C@@H]23)[C@@]1(C)C6 (some centres undefined)	> 100	> 100		> 100	> 100	> 100	> 100	> 100	> 100								> 100		
